Where a name gives a salt, the structure may show the parent alone.
Target: T1, isolated kinase domain of the human FLT3 receptor (a.a. 571-993) (Homo sapiens, UniProt P36888)
T1 construct: human FLT3 receptor (a.a. 571-993)
T1 sequence (P36888 571-993): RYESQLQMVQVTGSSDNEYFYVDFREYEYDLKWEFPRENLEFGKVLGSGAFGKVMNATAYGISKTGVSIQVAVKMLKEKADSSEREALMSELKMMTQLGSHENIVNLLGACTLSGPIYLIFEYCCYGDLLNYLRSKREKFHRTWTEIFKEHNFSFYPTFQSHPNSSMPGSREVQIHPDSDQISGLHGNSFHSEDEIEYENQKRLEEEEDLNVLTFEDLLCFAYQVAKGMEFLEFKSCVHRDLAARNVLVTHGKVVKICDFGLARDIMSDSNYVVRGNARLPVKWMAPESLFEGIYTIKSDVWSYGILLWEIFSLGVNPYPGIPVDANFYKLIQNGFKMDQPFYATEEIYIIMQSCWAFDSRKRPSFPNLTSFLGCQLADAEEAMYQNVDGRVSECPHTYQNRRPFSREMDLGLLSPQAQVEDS
Test: FLT3 fluorescence polarization kinase assay
Type: biochemical
Settings: 10 nM FLT3 571-993, 150 uM ATP; uncertainty ±10%; read-out: Flt-3 Kinase IC50
Description: The FLT3 FP assay utilizes the fluorescein-labeled phosphopeptide and the anti-phosphotyrosine antibody included in the Panvera Phospho-Tyrosine Kinase Kit (Green) supplied by Invitrogen. When FLT3 phosphorylates polyGlu4Tyr, the fluorescein-labeled phosphopeptide is displaced from the anti-phosphotyrosine antibody by the phosphorylated poly Glu4Tyr, thus decreasing the FP value. […] The kinase reaction is stopped with the addition of EDTA. The fluorescein-labeled phosphopeptide and the anti-phosphotyrosine antibody are added and incubated for 30 minutes at room temperature.
Data points are an average of triplicate samples. Inhibition and IC50 data analysis was done with GraphPad Prism using a non-linear regression fit with a multiparamater, sigmoidal dose-response (variable slope) equation.

IC50 [nM]	SMILES
34	CN(C)CC(=O)N1CCC(c2ccc(NC(=O)c3nc(C#N)c[nH]3)c(C3=CCC(C)(C)CC3)n2)CC1 [Example 55, 4-Cyano-1H-imidazole-2-carboxylic acid [1′-(2-dimethylamino-acetyl)-6-(4,4-dimethyl-cyclohex-1-enyl)-1′,2′,3′,4′,5′,6′-hexahydro-[2,4′]bipyridinyl-5-yl]-amide trifluoroacetic acid salt]
29	N#Cc1c[nH]c(C(=O)Nc2ccc(C3CCNCC3)cc2C2=CCCCC2)c1 [Example 13, 4-Cyano-1H-pyrrole-2-carboxylic acid (2-cyclohex-1-enyl-4-piperidin-4-yl-phenyl)-amide trifluoroacetic acid salt]
10	Cc1cscc1-c1cc(N2CCN(C)CC2)ccc1NC(=O)c1ccc(C#N)o1 [Example 5, 5-Cyano-furan-2-carboxylic acid [4-(4-methyl-piperazin-1-yl)-2-(4-methyl-thiophen-3-yl)-phenyl]-amide]

Tested on: MV4-11 cells
Test: Inhibition of MV4-11 cell proliferation (CellTiterGlo)
Type: cell-based
Settings: Homo sapiens, 72 hours growth, uncertainty ±20%
Procedure: To assess the cellular potency of compounds of the present invention, FLT3 specific growth inhibition was measured in the leukemic cell line MV4-11 (ATCC Number: CRL-9591). MV4-11 cells are derived from a patient with childhood acute myelomonocytic leukemia with an 11q23 translocation resulting in a MLL gene rearrangement and containing an FLT3-ITD mutation (AML subtype M4)(1,2). MV4-11 cells cannot grow and survive without active FLT3ITD.
To measure proliferation inhibition by compounds of the present invention, the luciferase based CellTiterGlo reagent (Promega), which quantifies total cell number based on total cellular ATP concentration, was used. Cells are plated at 10,000 cells per well in 100 ul of in RPMI media containing penn/strep, 10% FBS and 1 ng/ml GM-CSF or 1 ng/ml IL-3 for MV4-11 and Baf3 cells respectively.
Compound dilutions or 0.1% DMSO (vehicle control) are added to cells and the cells are allowed to grow for 72 hours at standard cell growth conditions (37° C., 5% CO2). For activity measurements in MV4-11 cells grown in 50% plasma, cells were plated at 10,000 cells per well in a 1:1 mixture of growth media and human plasma (final volume of 100 μL). To measure total cell growth an equal volume of CellTiterGlo reagent was added to each well, according to the manufacturer's instructions, and luminescence was quantified. Total cell growth was quantified as the difference in luminescent counts (relative light units, RLU) of cell number at Day 0 compared to total cell number at Day 3 (72 hours of growth and/or compound treatment). One hundred percent inhibition of growth is defined as an RLU equivalent to the Day 0 reading. Zero percent inhibition was defined as the RLU signal for the DMSO vehicle control at Day 3 of growth.
Data points are an average of triplicate samples. […] Inhibition and IC50 data analysis was done with GraphPad Prism using a non-linear regression fit with a multiparamater, sigmoidal dose-response (variable slope) equation.

IC50 [nM]	SMILES
192	N#Cc1c[nH]c(C(=O)Nc2ccc(C3CCS(=O)(=O)CC3)cc2C2=CCCCC2)n1 [Example 35, 4-Cyano-1H-imidazole-2-carboxylic acid [2-cyclohex-1-enyl-4-(1,1-dioxo-hexahydro-1λ^6-thiopyran-4-yl)-phenyl]-amide]
> 10000	CN1CCN(c2ccc(NC(=O)c3ccc(C#N)o3)c(C3=CCOCC3)c2)CC1 [Example 12]
1000	Cc1ccccc1-c1cc(N2CCN(C)CC2)ccc1NC(=O)c1ccc(C#N)o1 [Example 9, 5-Cyano-furan-2-carboxylic acid [2′-methyl-5-(4-methyl-piperazin-1-yl)-biphenyl-2-yl]-amide]
131	CN1CCN(c2ccc(NC(=O)c3ccc(C#N)o3)c(C3=CCCCC3)c2)CC1 [Example 11, 5-Cyano-furan-2-carboxylic acid [2-cyclohex-1-enyl-4-(4-methyl-piperazin-1-yl)-phenyl]-amide]
115	Cn1ccnc1CN1CCC(c2ccc(NC(=O)c3nc(C#N)c[nH]3)c(C3=CCCC3)c2)CC1 [Example 23, 4-Cyano-1H-imidazole-2-carboxylic acid {2-cyclopent-1-enyl-4-[1-(1-methyl-1 H-imidazol-2-ylmethyl)-piperidin-4-yl]-phenyl}-amide trifluoroacetic acid salt]
666	Cc1cscc1-c1cc(N2CCN(C)CC2)ccc1NC(=O)c1ccc(C#N)o1 [Example 5, 5-Cyano-furan-2-carboxylic acid [4-(4-methyl-piperazin-1-yl)-2-(4-methyl-thiophen-3-yl)-phenyl]-amide]
4.72	C[C@@H]1CC(c2ccc(NC(=O)c3ncc(C#N)[nH]3)c(C3=CCCCC3)c2)C[C@H](C)N1 (stereo partly drawn) [Example 51a, 5-Cyano-1H-imidazole-2-carboxylic acid [2-cyclohex-1-enyl-4-(cis-2,6-dimethyl-piperidin-4-yl)-phenyl]-amide bis trifluoroacetic acid salt]

SMILES	IC50 [nM]
CS(=O)(=O)CCN1CCC(c2ccc(NC(=O)c3nc(C#N)c[nH]3)c(C3=CCCCC3)c2)CC1 [Example 40, 4-Cyano-1H-imidazole-2-carboxylic acid {2-cyclohex-1-enyl-4-[1-(2-methanesulfonyl-ethyl)-piperidin-4-yl]-phenyl}-amide]	116
N#Cc1c[nH]c(C(=O)Nc2ccc(C3CCNCC3)cc2C2=CCS(=O)(=O)CC2)n1 [Example 36, 4-Cyano-1H-imidazole-2-carboxylic acid [2-(1,1-dioxo-1,2,3,6-tetrahydro-1λ^6-thiopyran-4-yl)-4-piperidin-4-yl-phenyl]-amide trifluoroacetic acid salt]	192
N#Cc1c[nH]c(C(=O)Nc2ccc(C3CCN(CCN4CCOCC4)CC3)cc2C2=CCCCC2)n1 [Example 34, 4-Cyano-1H-imidazole-2-carboxylic acid {2-cyclohex-1-enyl-4-[1-(2-morpholin-4-yl-ethyl)-piperidin-4-yl]-phenyl}-amide di-trifluoroacetic acid salt]	8

From patent US7795279B2, “Method of inhibiting FLT3 kinase” (Janssen Pharmaceutica NV, priority 2005, dated 2010)
